“Also recorded” adds a separate entry of the source.
Columns and labels:
[1] = system: RPMI 8226 cells; test: Antiproliferative activity, XTT assay; type: cell-based; settings: for IC50: Homo sapiens, RPMI-8226, 72 h, mean ± SD of three measurements; for Antiproliferative activity against RPMI 8226 (in words): 72 h
Protocol: (§1) Human multiple myeloma cancer stem cells (MM-CSCs) derived from the bone marrow of a MM patient, were obtained from Celprogen (Torrance, CA). MM-CSCs were used between passages 4 and 12 for experiments. The tumour plasma cells RPMI 8226 were obtained from LGC standards (Middlesex, United Kingdom). RPMI 8226 cells were used between passages 10 and 25 for experiments. The two cell lines were cultured at 37 °C and 5% CO2 atmosphere in RPMI 1640 culture medium supplemented with 10% foetal bovine serum (Biowest), 100 IU/mL penicillin and 250 μg/mL streptomycin. MTT and XTT assays were used to evaluate the antiproliferative activity of the pure compounds in MM-CSCs and RPMI 8226 cells, respectively (Issa and Cuendet [2017]). MM-CSCs were seeded in 96 well plates at a density of 5,000 cells per well and allowed to adhere for 24 h, whereas RPMI 8226 cells were plated at a density of 15,000 cells per well and treated immediately. MM-CSCs and RPMI 8226 cells were treated with increasing concentrations (0–20 µM) of compounds for 72 h. Twenty microlitres of MTT solution (5 mg/mL) or 50 μL XTT solution (1 mg/mL) were added in each well and incubated for 2 h (MTT assay) or 4 h (XTT assay). The media and MTT solution were aspirated and the cells containing formazan were solubilized in 100 µL DMSO. Absorbance was measured at 590 nm (MTT assay) or 450 nm (XTT assay). The percentage of cell viability was calculated as the absorbance of each well was divided by that of the vehicle control wells (0.5% DMSO in culture medium) and multiplied by 100. IC50 values were calculated using GraphPad Prism. Each compound was tested in triplicate and three independent experiments were performed using bortezomib as positive control.

[2] = system: MM-CSCs (multiple myeloma cancer stem cells); test: Antiproliferative activity, MTT assay; type: cell-based, Human; settings: 72 h; for IC50: Homo sapiens, mean ± SD of three measurements
Protocol: as §1

[3] = system: NF-κB; test: NF-κB inhibition assay, TNF-α stimulated HEK293/NF-κB-luc luciferase reporter cells; type: cell-based; settings: TNF-α (20 ng/mL) induced, mean ± SD of three independent measurements
Protocol: NF-κB inhibitory activity was assessed using a HEK293/NF-κB-luc cell line (Panomics, Fremont, CA) as previously described (Ndongo et al. [2017]). Briefly, cells were cultured at 37 °C and 5% CO2 atmosphere in high glucose Dulbecco's modified Eagle's medium (ThermoFisher Scientific) with 100 IU/mL penicillin, 100 μg/mL streptomycin, 100 μg/mL hygromycin B (ThermoFisher Scientific) and 10% foetal bovine serum (Biowest, Nuaillé, France). The day before the assay, cells were treated for 1 h with 2.5 μM of Cell Tracker Green CMFDA (ThermoFisher Scientific), a fluorescent dye used to quantify cell viability, in FBS-free medium. Then, 10^4 cells/well were seeded in 96-well plates and incubated overnight. After that, cells were treated with either the vehicle control (0.5% DMSO in culture medium) or the samples and stimulated for 5 h with 20 ng/mL of TNF-α (Sigma-Aldrich, Saint Louis, MO). Finally, cells were lysed with reporter lysis buffer (Promega, Madison, WI) and fluorescence signals were read on a Cytation 3 multimode plate reader (Biotek, Winooski, VT). Luciferase assay reagent (Promega) was then added to each well using the auto-injector and the luminescence signals were read. The fluorescence signal was used to normalize the luminescence signal for each well to limit the influence of cell toxicity in luminescence signal intensity. Relative NF-κB activity was quantified by comparing the normalized luminescence signal of vehicle treated nonstimulated cells with the one of vehicle treated stimulated cells. All pure compounds were first screened at 20 μM. Compounds able to inhibit more than 50% of TNF-α induced NF-κB activity at this concentration were considered as active and were selected for calculation of their IC50. Nonlinear regression (with sigmoidal dose response) was used to calculate the IC50 values using GraphPad Prism. Each compound was tested in duplicate and three independent experiments were performed using parthenolide as positive control.

[4] = DPPH radical scavenging assay; settings: pure compound
Protocol: The DPPH radical scavenging activity was carried out as described previously (Şahin et al. [2004]) with slight modifications. Samples (1–200 µg/mL) were added to a 60-μM methanol solution of DPPH. The absorbance of the solution was measured at 517 nm after a 30-min incubation period at room temperature in the dark.

[5] = NO radical scavenging assay; settings: pure compound

SMILES | IC50 [1] | IC50 [2] | Antiproliferative activity against RPMI 8226 (in words) [1] | IC50 ([3]; Homo sapiens, HEK293, 5 h) | Antiproliferative activity against MM-CSCs (in words) [2] | IC50 ([3]; 5 h) | IC50 [4] | IC50 [5]
CC(C)C[C@H](NC(=O)[C@H](Cc1ccccc1)NC(=O)c1cnccn1)B(O)O [Bortezomib, bortezomib, reference compound] | 3.3 ± 0.8 nM | 9.1 ± 1.4 nM |  |  |  |  |  | 
CC1=C(C)C(=O)O[C@@H]([C@](C)(O)[C@]2(O)CC[C@@]3(O)[C@@H]4CC=C5CC=CC(=O)[C@]5(C)[C@H]4CC[C@]23C)C1 [Compound 1, withanolide F] | 100 ± 10 nM | 5300 ± 900 nM | low µM antiproliferative activity; also recorded: showed activity | 1200 ± 200 nM | low µM antiproliferative activity; also recorded: showed activity |  |  | 
CC1=C(CO)C(=O)O[C@@H]([C@@H](C)[C@H]2CC[C@H]3[C@@H]4C[C@H]5O[C@]56[C@@H](O)C=CC(=O)[C@]6(C)[C@H]4CC[C@]23C)C1 [Compound 2, withaferin A] | 170 ± 30 nM | 330 ± 20 nM | low µM antiproliferative activity | 47 nM | low µM antiproliferative activity | 50 ± 10 nM |  | 
CC1=C(C)C(=O)OC(C(C)(O)C2(O)CCC3(O)C4CC=C5CC(OC6OC(CO)C(O)C(O)C6O)CC(=O)C5(C)C4CCC32C)C1 (stereo not shown) [Compound 3, coagulin L] | 3600 ± 600 nM | > 20000 nM |  | > 20000 nM |  |  |  | 
C[C@@H]1O[C@@H](OC[C@H]2O[C@@H](Oc3c(-c4ccc(O)cc4)oc4cc(O)cc(O)c4c3=O)[C@H](O)[C@@H](O)[C@@H]2O)[C@H](O)[C@H](O)[C@H]1O [Compound 4, nicotiflorin] | 7100 ± 100 nM | > 20000 nM |  | > 20000 nM |  |  | 35300 nM | 41300 nM
CC1=C(C)C(=O)OC(C(C)(O)C2(O)CCC3(O)C4CC=C5CC(OC6OC(CO)C(OC7OC(C)C(O)C(O)C7O)C(O)C6O)CC(=O)C5(C)C4CCC32C)C1 [Compound 5, (14R,17S,20R,22R)-3β-O-(α-L-rhamnopyranosyl-(1→4)-β-D-glucopyranosyl)-14,17,20-trihydroxy-1-oxo-witha-5,24-dienolide] | 3200 ± 400 nM | > 20000 nM |  | > 20000 nM |  |  |  | 
C=C1C(=O)O[C@H]2[C@H]1CC/C(C)=C/CC[C@@]1(C)O[C@@H]21 [Parthenolide, parthenolide, reference compound] |  |  |  | 530 ± 10 nM |  |  |  | 

Reference: paper PMC6249549, “Bioactive metabolites from the leaves of Withania adpressa” (Pharmaceutical Biology, 2018)
